Experimental findings from patent US10626112B2, “Heterocyclic sulfonamide derivative and medicine comprising same” (EA PHARMA CO., LTD., priority 2014, dated 2020) are described below.

Each structure is given as a SMILES string.

This experiment deals with human TRPA1 (Homo sapiens (Human), UniProt O75762). Kind of experiment: Measurement of TRPA1 antagonist activity (1): intracellular calcium increase. The experiment is classed as cell-based. The following applies: 293T cells transfected with human TRPA1 expression plasmid; allylisothiocyanate 20 μM stimulation; intracellular calcium fluorescence; read-out: hTRPA1 IC50. Summed up: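 HEK293T cells transiently transfected with full-length human TRPA1, loaded with Calcium4 dye in HBSS/20 mM HEPES pH 7.2. Test compound preincubated 10 min, then allylisothiocyanate added at 20 μM final and fluorescence change followed for 5 min. IC50 from sigmoid fit of percent inhibition relative to agonist and buffer controls.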
Sequence of human TRPA1 (O75762 whole entry): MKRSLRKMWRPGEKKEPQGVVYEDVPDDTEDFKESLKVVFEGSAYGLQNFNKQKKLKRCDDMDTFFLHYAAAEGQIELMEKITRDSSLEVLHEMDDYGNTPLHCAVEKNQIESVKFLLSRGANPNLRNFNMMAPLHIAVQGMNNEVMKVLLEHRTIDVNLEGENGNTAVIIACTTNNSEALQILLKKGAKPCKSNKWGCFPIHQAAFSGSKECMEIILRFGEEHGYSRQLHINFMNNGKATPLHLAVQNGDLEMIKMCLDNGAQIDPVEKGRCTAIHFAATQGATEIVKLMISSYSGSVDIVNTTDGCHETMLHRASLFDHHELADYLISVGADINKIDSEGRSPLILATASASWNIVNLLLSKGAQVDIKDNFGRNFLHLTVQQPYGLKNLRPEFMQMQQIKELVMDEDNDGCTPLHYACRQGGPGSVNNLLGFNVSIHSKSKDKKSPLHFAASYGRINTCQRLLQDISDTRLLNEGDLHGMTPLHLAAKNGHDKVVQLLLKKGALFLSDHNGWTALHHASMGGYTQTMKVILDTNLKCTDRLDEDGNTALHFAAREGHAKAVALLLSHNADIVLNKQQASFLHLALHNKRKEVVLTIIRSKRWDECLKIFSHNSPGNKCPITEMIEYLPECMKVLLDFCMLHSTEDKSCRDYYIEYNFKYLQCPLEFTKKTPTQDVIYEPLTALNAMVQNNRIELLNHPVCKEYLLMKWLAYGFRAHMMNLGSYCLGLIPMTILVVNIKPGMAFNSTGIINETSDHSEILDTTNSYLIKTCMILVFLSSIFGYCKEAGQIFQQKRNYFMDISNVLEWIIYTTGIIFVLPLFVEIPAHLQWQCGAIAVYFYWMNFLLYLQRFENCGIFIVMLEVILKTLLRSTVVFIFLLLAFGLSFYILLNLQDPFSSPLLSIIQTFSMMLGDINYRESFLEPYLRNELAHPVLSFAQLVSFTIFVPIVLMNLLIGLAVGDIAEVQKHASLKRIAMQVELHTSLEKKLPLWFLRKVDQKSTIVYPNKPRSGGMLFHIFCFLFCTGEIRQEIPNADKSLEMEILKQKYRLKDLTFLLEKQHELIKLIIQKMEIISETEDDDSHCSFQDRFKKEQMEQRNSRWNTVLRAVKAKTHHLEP
A general note: A change in cytosolic calcium serves as a functional read-out for many receptors and channels.
In the case of `O=C(NCc1cc(-c2ccc(OC(F)(F)F)cc2)ccn1)[C@@H]1CCCN1S(=O)(=O)c1cc2cc(F)ccc2o1` [Example 222, (2S)-1-(5-fluorobenzofuran-2-yl)sulfonyl-N-[[4-[4-(trifluoromethoxy)phenyl]-2-pyridyl]methyl]pyrrolidine-2-carboxamide], the half-inhibitory concentration (IC50) (commonly the point on the concentration scale where inhibition reaches its midpoint) was 2.4 nM.

For the molecule `O=C(NCc1cc(-c2ccc(C(F)(F)F)cn2)ccn1)[C@@H]1CCCN1S(=O)(=O)c1cc2cc(F)ccc2o1` [Example 223, (2S)-1-(5-fluorobenzofuran-2-yl)sulfonyl-N-[[4-[5-(trifluoromethyl)-2-pyridyl]-2-pyridyl]methyl]pyrrolidine-2-carboxamide], the IC50 was found to be 0.88 nM.

Consider `O=C(NCc1cc(-c2ccc(C(F)(F)F)nc2)ncn1)[C@@H]1CCCN1S(=O)(=O)c1cc2cc(F)ccc2o1` [Example 224, (2S)-1-(5-fluorobenzofuran-2-yl)sulfonyl-N-[[6-[6-(trifluoromethyl)-3-pyridyl]pyrimidin-4-yl]methyl]pyrrolidine-2-carboxamide], for which the concentration for half-maximal inhibition (IC50) is 0.66 nM.

Turning to `O=C(NCc1cc(-c2ccc(C(F)(F)F)cn2)ccn1)[C@@H]1C=CCN1S(=O)(=O)c1cc2cc(F)ccc2o1` [Example 225, (2S)-1-(5-fluorobenzofuran-2-yl)sulfonyl-N-[[4-[5-(trifluoromethyl)-2-pyridyl]-2-pyridyl]methyl]-2,5-dihydropyrrole-2-carboxamide], the IC50 worked out at 1.3 nM.

On to `O=C(NCc1cc(-c2ccc(C(F)(F)F)cc2)ncn1)[C@@H]1[C@@H](O)CCN1S(=O)(=O)c1cc2ccccc2o1` [Example 226, (2S,3S)-1-(benzofuran-2-ylsulfonyl)-3-hydroxy-N-[[6-[4-(trifluoromethyl)-phenyl]pyrimidin-4-yl]methyl]pyrrolidine-2-carboxamide], for which the IC50 amounted to 25 nM.

With `O=C(NCc1cc(-c2ccc(C(F)(F)F)cn2)ccn1)[C@@H]1[C@@H](O)CCN1S(=O)(=O)c1cc2ccccc2o1` [Example 227, (2S,3S)-1-(benzofuran-2-ylsulfonyl)-3-hydroxy-N-[[4-[5-(trifluoromethyl)-2-pyridyl]-2-pyridyl]methyl]pyrrolidine-2-carboxamide], the IC50 is 42 nM.

Consider `O=C(NCc1cc(-c2ccc(C(F)(F)F)cn2)ccn1)[C@@H]1[C@@H](O)CCN1S(=O)(=O)c1cc2cc(F)ccc2o1` [Example 228, (2S,3S)-1-(5-fluorobenzofuran-2-yl)sulfonyl-3-hydroxy-N-[[4-[5-(trifluoromethyl)-2-pyridyl]-2-pyridyl]methyl]pyrrolidine-2-carboxamide], for which the IC50 stood at 32 nM.

Consider `O=C(NCc1cc(-c2ccc(C(F)(F)F)cn2)ccn1)[C@@H]1CC(F)(F)CN1S(=O)(=O)c1cc2cc(F)ccc2o1` [Example 229, (2S)-4,4-difluoro-1-(5-fluorobenzofuran-2-yl)sulfonyl-N-[[4-[5-(trifluoromethyl)-2-pyridyl]-2-pyridyl]methyl]pyrrolidine-2-carboxamide], for which the IC50 stood at 12 nM.

As for `O=C(NCc1cc(-c2ccc(C(F)(F)F)cn2)ccn1)[C@@H]1CCN1S(=O)(=O)c1cc2cc(F)ccc2o1` [Example 230, (2S)-1-(5-fluorobenzofuran-2-yl)sulfonyl-N-[[4-[5-(trifluoromethyl)-2-pyridyl]-2-pyridyl]methyl]azetidine-2-carboxamide], the IC50 stood at 4.4 nM.

Regarding `C[C@H](NS(=O)(=O)c1cc2ccccc2o1)C(=O)NCc1cc(-c2ccc(OC(F)(F)F)cc2)ncn1` [Example 231, (2S)-2-(benzofuran-2-ylsulfonylamino)-N-[[6-[4-(trifluoromethoxy)phenyl]-pyrimidin-4-yl]methyl]propanamide], the IC50 was 14 nM.

With `C[C@H](NS(=O)(=O)c1cc2cc(F)ccc2o1)C(=O)NCc1cccc(-c2ncc(C(F)(F)F)cn2)c1` [Example 232, (2S)-2-[(5-fluorobenzofuran-2-yl)sulfonylamino]-N-[[3-[5-(trifluoromethyl)pyrimidin-2-yl]phenyl]methyl]propanamide], the IC50 is 77 nM.

For the molecule `C[C@H](NS(=O)(=O)c1cc2cc(F)ccc2o1)C(=O)NCc1cccc(-c2cnc(C(F)(F)F)nc2)c1` [Example 233, (2S)-2-[(5-fluorobenzofuran-2-yl)sulfonylamino]-N-[[3-[2-(trifluoromethyl)pyrimidin-5-yl]phenyl]methyl]propanamide], the IC50 turned out to be 10 nM.

With `C[C@H](NS(=O)(=O)c1cc2cc(F)ccc2o1)C(=O)NCc1cccc(-c2cnc(C(F)(F)F)cn2)c1` [Example 234, (2S)-2-[(5-fluorobenzofuran-2-yl)sulfonylamino]-N-[[3-[5-(trifluoromethyl)pyrazin-2-yl]phenyl]methyl]propanamide], the IC50 was 34 nM.

Consider `C[C@H](NS(=O)(=O)c1cc2cc(F)ccc2o1)C(=O)NCc1cccc(-c2ccc(C(F)(F)F)nn2)c1` [Example 235, (2S)-2-[(5-fluorobenzofuran-2-yl)sulfonylamino]-N-[[3-[6-(trifluoromethyl)pyridazin-3-yl]phenyl]methyl]propanamide], for which the IC50 was 20 nM.

In the case of `C[C@H](NS(=O)(=O)c1cc2cc(F)ccc2o1)C(=O)NCc1ccnc(-c2ccc(C(F)(F)F)nc2)c1` [Example 236, (2S)-2-[(5-fluorobenzofuran-2-yl)sulfonylamino]-N-[[2-[6-(trifluoromethyl)-3-pyridyl]-4-pyridyl]methyl]propanamide], the IC50 worked out at 31 nM.

Regarding `C[C@H](NS(=O)(=O)c1cc2cc(F)ccc2o1)C(=O)NCc1ccnc(-c2ccc(C(F)(F)F)cn2)c1` [Example 237, (2S)-2-[(5-fluorobenzofuran-2-yl)sulfonylamino]-N-[[2-[5-(trifluoromethyl)-2-pyridyl]-4-pyridyl]methyl]propanamide], the IC50 came to 270 nM.

For `C[C@H](NS(=O)(=O)c1cc2cc(F)ccc2o1)C(=O)NCc1ccnc(-c2cnc(C(F)(F)F)nc2)c1` [Example 238, (2S)-2-[(5-fluorobenzofuran-2-yl)sulfonylamino]-N-[[2-[2-(trifluoromethyl)pyrimidin-5-yl]-4-pyridyl]methyl]propanamide], the IC50 was 42 nM.

Turning to `C[C@H](NS(=O)(=O)c1cc2cc(F)ccc2o1)C(=O)NCc1cc(-c2ccc(OC(F)(F)F)cc2)ccn1` [Example 239, (2S)-2-[(5-fluorobenzofuran-2-yl)sulfonylamino]-N-[[4-[4-(trifluoromethoxy)phenyl]-2-pyridyl]methyl]propanamide], the IC50 was found to be 17 nM.

On to `C[C@H](NS(=O)(=O)c1cc2cc(F)ccc2o1)C(=O)NCc1cc(-c2ccc(C(F)(F)F)cn2)ccn1` [Example 240, (2S)-2-[(5-fluorobenzofuran-2-yl)sulfonylamino]-N-[[4-[5-(trifluoromethyl)-2-pyridyl]-2-pyridyl]methyl]propanamide], for which the IC50 came to 14 nM.

Consider `C[C@H](NS(=O)(=O)c1cc2cc(F)ccc2o1)C(=O)NCc1cc(-c2cnc(C(F)(F)F)nc2)ccn1` [Example 241, (2S)-2-[(5-fluorobenzofuran-2-yl)sulfonylamino]-N-[[4-[2-(trifluoromethyl)pyrimidin-5-yl]-2-pyridyl]methyl]propanamide], for which the IC50 turned out to be 75 nM.

As to `C[C@H](NS(=O)(=O)c1cc2cc(F)ccc2o1)C(=O)NCc1cc(-c2ncc(C(F)(F)F)cn2)ccn1` [Example 242, (2S)-2-[(5-fluorobenzofuran-2-yl)sulfonylamino]-N-[[4-[5-(trifluoromethyl)pyrimidin-2-yl]-2-pyridyl]methyl]propanamide], the IC50 worked out at 160 nM.

In the case of `C[C@H](NS(=O)(=O)c1cc2cc(F)ccc2o1)C(=O)NCc1cc(-c2cnc(C(F)(F)F)cn2)ccn1` [Example 243, (2S)-2-[(5-fluorobenzofuran-2-yl)sulfonylamino]-N-[[4-[5-(trifluoromethyl)pyrazin-2-yl]-2-pyridyl]methyl]propanamide], the IC50 stood at 55 nM.

In the case of `C[C@H](NS(=O)(=O)c1cc2cc(F)ccc2o1)C(=O)NCc1cc(-c2ccc(C(F)(F)F)nn2)ccn1` [Example 244, (2S)-2-[(5-fluorobenzofuran-2-yl)sulfonylamino]-N-[[4-[6-(trifluoromethyl)pyridazin-3-yl]-2-pyridyl]methyl]propanamide], the IC50 was found to be 44 nM.

In the case of `C[C@H](NS(=O)(=O)c1cc2cc(F)ccc2o1)C(=O)NCc1cncc(-c2ccc(C(F)(F)F)nc2)c1` [Example 245, (2S)-2-[(5-fluorobenzofuran-2-yl)sulfonylamino]-N-[[5-[6-(trifluoromethyl)-3-pyridyl]-3-pyridyl]methyl]propanamide], the IC50 turned out to be 120 nM.

For the molecule `C[C@H](NS(=O)(=O)c1cc2cc(F)ccc2o1)C(=O)NCc1cncc(-c2ccc(C(F)(F)F)cn2)c1` [Example 246, (2S)-2-[(5-fluorobenzofuran-2-yl)sulfonylamino]-N-[[5-[5-(trifluoromethyl)-2-pyridyl]-3-pyridyl]methyl]propanamide], the IC50 turned out to be 110 nM.

Turning to `C[C@H](NS(=O)(=O)c1cc2cc(F)ccc2o1)C(=O)NCc1cc(-c2ccc(C(F)(F)F)cn2)ncn1` [Example 247, (2S)-2-[(5-fluorobenzofuran-2-yl)sulfonylamino]-N-[[6-[5-(trifluoromethyl)-2-pyridyl]pyrimidin-4-yl]methyl]propanamide], the IC50 was 64 nM.

`C[C@H](NS(=O)(=O)c1cc2cc(F)ccc2o1)C(=O)NCc1cc(-c2cnc(C(F)(F)F)nc2)ncn1` [Example 248, (2S)-2-[(5-fluorobenzofuran-2-yl)sulfonylamino]-N-[[6-[2-(trifluoromethyl)pyrimidin-5-yl]pyrimidin-4-yl]methyl]propanamide]: the IC50 was 20 nM.

Regarding `C[C@H](NS(=O)(=O)c1cc2cc(F)ccc2o1)C(=O)NCc1cnnc(-c2ccc(C(F)(F)F)cc2)c1` [Example 249, (2S)-2-[(5-fluorobenzofuran-2-yl)sulfonylamino]-N-[[6-[4-(trifluoromethyl)phenyl]-pyridazin-4-yl]methyl]propanamide], the half-maximal inhibitory concentration (IC50) amounted to 170 nM.
